Experimental data reported in the NIST ThermoML archive (doi:10.1016/j.fluid.2005.09.025).
Numbers after ± are expanded uncertainties.

Details: 298.15 K, 101.33 kPa, Liquid

mass density	mass density (Vibrating tube method)	Compound
764.96 ± 0.35 kg/m3		CC1CCCCC1 [methylcyclohexane]
	943.81 ± 0.09 kg/m3	CN(C)C=O [dimethylformamide]
	648.45 ± 0.22 kg/m3	CCCC(C)C [2-methylpentane]
	786.55 ± 0.16 kg/m3	CO [methanol]
